Format in all cases: cell-based
Data set [1] concerns human red blood cells (hRBC). The following applies: red cells of human, 1 h, 200 μg/mL. A digest of the protocol:
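Percent hemolysis derived from OD540 of supernatants relative to full lysis by 2.5% Triton X-100 (PBS baseline). Washed fresh human erythrocytes (20% v/v) were exposed to 200 μg/mL peptide for 1 h at 37 °C with shaking.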

The test system of data set [2] is Escherichia coli ATCC 25922. Conditions: ATCC 25922. A digest of the protocol: (§1)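 MICs were determined by CLSI broth microdilution in cation-adjusted Mueller-Hinton II broth with about 5×10^5 CFU/mL inoculum. Peptides were tested in two-fold serial dilutions with 0.002% polysorbate 80 final. MIC in μg/mL is the lowest concentration with no visible growth after 18-20 h at 35 °C.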

Data set [3] deals with Escherichia coli MCR-1 Af 45. The following applies: MCR-1 Af 45. A digest of the protocol: as §1
Data set [4] concerns Klebsiella pneumoniae SSI3010. The following applies: SSI3010. A digest of the protocol:
as §1

This note sets out measurements from patent US20240336654A1, “ANTIMICROBIAL PEPTIDOMIMETICS” (SPEXIS AG, priority 2021, published 2024).

The structures appear in SMILES notation. Where a SMILES comes first, the peptide text is derived from it. Bridges are numbered along the chain shown (N, C = ends). [ ]: non-standard residue; d: D form. The star is where a group is joined. Val(Nα-amidino) = CC(C)[C@H](NC(=N)N)C(=O)*; dDab(iPr) = CC(C)NCC[C@@H](N)C(=O)O; Dab(iPr) = CC(C)NCC[C@H](N)C(=O)O; Hyp = O=C(O)[C@@H]1C[C@@H](O)CN1; Cha = N[C@@H](CC1CCCCC1)C(=O)O; Pen = CC(C)(S)[C@H](N)C(=O)O; dDab = NCC[C@@H](N)C(=O)O; Nle = CCCC[C@H](N)C(=O)O; Dab = NCC[C@H](N)C(=O)O

With `CC[C@H](C)[C@H](NC(=O)[C@@H]1C[C@@H](O)CN1C(=O)[C@@H](N)C(C)C)C(=O)N[C@@H]1C(=O)N[C@@H](Cc2ccc(O)cc2)C(=O)N[C@@H](CO)C(=O)N[C@@H](CC(N)=O)C(=O)N[C@@H](CCCNC(=N)N)C(=O)N[C@@H](CCN)C(=O)N[C@@H]([C@@H](C)O)C(=O)N[C@H](CCN)C(=O)N[C@@H](CCCCN)C(=O)N[C@@H](CCN)C(=O)N[C@@H](CCN)C(=O)N[C@H](C(=O)N[C@@H](CC2CCCCC2)C(=O)O)CSSC1(C)C` [Example 65, Val-Hyp-Ile-Pen-Tyr-Ser-Asn-Arg-Dab-Thr-^DDab-Lys-Dab-Dab-Cys-Cha] (H-V[Hyp]I[Pen]YSNR[Dab]T[dDab]K[Dab][Dab]C[Cha]-OH; disulfide 4-15), the “Hemolysis at 0.2 g/L” value in data set [1] is reported as less than 1%. For the same compound, the “Escherichia coli ATCC 25922 MIC” value in data set [2] stood at 0.25 mg/L. Besides, in data set [3], the “Escherichia coli MCR-1 Af45 MIC” value worked out at 0.0625 mg/L. For the same compound, the “Klebsiella pneumoniae SSI3010 MIC” value in data set [4] is 0.25 mg/L.
Consider `CC[C@H](C)[C@H](NC(=O)[C@@H]1C[C@@H](O)CN1C(=O)[C@@H](N)C(C)C)C(=O)N[C@@H]1C(=O)N[C@@H](Cc2ccc(O)cc2)C(=O)N[C@@H](CO)C(=O)N[C@@H](CC(N)=O)C(=O)N[C@@H](CCCNC(=N)N)C(=O)N[C@@H](CCN)C(=O)N[C@@H]([C@@H](C)O)C(=O)N[C@H](CCN)C(=O)N[C@@H](CCCCN)C(=O)N[C@@H](CCN)C(=O)N[C@@H](CCN)C(=O)N[C@H](C(=O)N[C@@H](Cc2c[nH]c3ccccc23)C(=O)O)CSSC1(C)C` [Example 66, Val-Hyp-Ile-Pen-Tyr-Ser-Asn-Arg-Dab-Thr-^DDab-Lys-Dab-Dab-Cys-Trp] (H-V[Hyp]I[Pen]YSNR[Dab]T[dDab]K[Dab][Dab]CW-OH; disulfide 4-15), for which, in data set [1], the “Hemolysis at 0.2 g/L” value is on record as less than 1%. Also, the “Escherichia coli ATCC 25922 MIC” value in data set [2] came out at 0.0625 mg/L. Besides, in data set [3], the “Escherichia coli MCR-1 Af45 MIC” value is 0.0625 mg/L. Besides, the “Klebsiella pneumoniae SSI3010 MIC” value in data set [4] amounted to 0.125 mg/L.
With `CCCC[C@H](NC(=O)[C@@H]1CSSC(C)(C)[C@H](NC(=O)[C@@H](NC(=O)[C@@H]2C[C@@H](O)CN2C(=O)[C@@H](N)C(C)C)[C@@H](C)CC)C(=O)N[C@@H](Cc2ccc(O)cc2)C(=O)N[C@@H](CO)C(=O)N[C@@H](CC(N)=O)C(=O)N[C@@H](CCCNC(=N)N)C(=O)N[C@@H](CCN)C(=O)N[C@@H]([C@@H](C)O)C(=O)N[C@H](CCN)C(=O)N[C@@H](CCCCN)C(=O)N[C@@H](CCN)C(=O)N[C@@H](CCN)C(=O)N1)C(=O)O` [Example 67, Val-Hyp-Ile-Pen-Tyr-Ser-Asn-Arg-Dab-Thr-^DDab-Lys-Dab-Dab-Cys-Nle] (H-V[Hyp]I[Pen]YSNR[Dab]T[dDab]K[Dab][Dab]C[Nle]-OH; disulfide 4-15), in data set [1], the “Hemolysis at 0.2 g/L” value is listed as less than 1%. Further, in data set [2], the “Escherichia coli ATCC 25922 MIC” value turned out to be 0.0625 mg/L. For the same compound, the “Escherichia coli MCR-1 Af45 MIC” value in data set [3] stood at 0.0625 mg/L. In data set [4], the “Klebsiella pneumoniae SSI3010 MIC” value worked out at 0.125 mg/L.
With `CC[C@H](C)[C@H](NC(=O)[C@@H]1C[C@@H](O)CN1C(=O)[C@@H](NC(=N)N)C(C)C)C(=O)N[C@@H]1C(=O)N[C@@H](Cc2ccc(O)cc2)C(=O)N[C@@H]([C@@H](C)O)C(=O)N[C@@H](CC(N)=O)C(=O)N[C@@H](CCCNC(=N)N)C(=O)N[C@@H](CCN)C(=O)N[C@@H]([C@@H](C)O)C(=O)N[C@H](CCN)C(=O)N[C@@H](CCCCN)C(=O)N[C@@H](CCN)C(=O)N[C@@H](CCN)C(=O)N[C@H](C(=O)N[C@@H](Cc2ccc(O)cc2)C(=O)O)CSSC1(C)C` [Example 68, Gua-Val-Hyp-Ile-Pen-Tyr-Thr-Asn-Arg-Dab-Thr-^DDab-Lys-Dab-Dab-Cys-Tyr] ({Val(Nα-amidino)}-[Hyp]I[Pen]YTNR[Dab]T[dDab]K[Dab][Dab]CY-OH; disulfide 3-14), in data set [1], the “Hemolysis at 0.2 g/L” value was less than 1%. Moreover, in data set [2], the “Escherichia coli ATCC 25922 MIC” value worked out at 0.0625 mg/L. Besides, the “Escherichia coli MCR-1 Af45 MIC” value in data set [3] was 0.03125 mg/L. Further, the “Klebsiella pneumoniae SSI3010 MIC” value in data set [4] was 0.125 mg/L.
In the case of `CC[C@H](C)[C@H](NC(=O)[C@@H]1C[C@@H](O)CN1C(=O)[C@@H](NC(=N)N)C(C)C)C(=O)N[C@@H]1C(=O)N[C@@H](Cc2ccc(O)cc2)C(=O)N[C@@H](CCN)C(=O)N[C@@H](CC(N)=O)C(=O)N[C@@H](CCCNC(=N)N)C(=O)N[C@@H](CCN)C(=O)N[C@@H]([C@@H](C)O)C(=O)N[C@H](CCN)C(=O)N[C@@H](CCCCN)C(=O)N[C@@H](CO)C(=O)N[C@@H](CCN)C(=O)N[C@H](C(=O)N[C@@H](Cc2ccc(O)cc2)C(=O)O)CSSC1(C)C` [Example 69, Gua-Val-Hyp-Ile-Pen-Tyr-Dab-Asn-Arg-Dab-Thr-^DDab-Lys-Ser-Dab-Cys-Tyr] ({Val(Nα-amidino)}-[Hyp]I[Pen]Y[Dab]NR[Dab]T[dDab]KS[Dab]CY-OH; disulfide 3-14), the “Hemolysis at 0.2 g/L” value in data set [1] is listed as less than 1%. The “Escherichia coli ATCC 25922 MIC” value in data set [2] is 0.0625 mg/L. For the same compound, the “Escherichia coli MCR-1 Af45 MIC” value in data set [3] came to 0.0625 mg/L. Moreover, the “Klebsiella pneumoniae SSI3010 MIC” value in data set [4] was 0.0625 mg/L.
In the case of `CC[C@H](C)[C@H](NC(=O)[C@@H]1C[C@@H](O)CN1C(=O)[C@@H](NC(=N)N)C(C)C)C(=O)N[C@@H]1C(=O)N[C@@H](Cc2ccc(O)cc2)C(=O)N[C@@H](CO)C(=O)N[C@@H](CC(N)=O)C(=O)N[C@@H](CCCNC(=N)N)C(=O)N[C@@H](CCNC(C)C)C(=O)N[C@@H]([C@@H](C)O)C(=O)N[C@H](CCN)C(=O)N[C@@H](CCCCN)C(=O)N[C@@H](CCNC(C)C)C(=O)N[C@@H](CCN)C(=O)N[C@H](C(=O)N[C@@H](Cc2ccc(O)cc2)C(=O)O)CSSC1(C)C` [Example 70, Gua-Val-Hyp-Ile-Pen-Tyr-Ser-Asn-Arg-Da b(iPr)-Thr-^DDab-Lys-Dab(iPr)-Dab-Cys-Tyr] ({Val(Nα-amidino)}-[Hyp]I[Pen]YSNR[Dab(iPr)]T[dDab]K[Dab(iPr)][Dab]CY-OH; disulfide 3-14), the “Hemolysis at 0.2 g/L” value in data set [1] is reported as less than 1%. In data set [2], the “Escherichia coli ATCC 25922 MIC” value worked out at 0.125 mg/L. In addition, the “Escherichia coli MCR-1 Af45 MIC” value in data set [3] is on record as 0.0625 mg/L. Also, in data set [4], the “Klebsiella pneumoniae SSI3010 MIC” value came out at 0.25 mg/L.
`CC[C@H](C)[C@H](NC(=O)[C@@H]1C[C@@H](O)CN1C(=O)[C@@H](NC(=N)N)C(C)C)C(=O)N[C@@H]1C(=O)N[C@@H](Cc2ccc(O)cc2)C(=O)N[C@@H](CO)C(=O)N[C@@H](CC(N)=O)C(=O)N[C@@H](CCCNC(=N)N)C(=O)N[C@@H](CCN)C(=O)N[C@@H]([C@@H](C)O)C(=O)N[C@H](CCNC(C)C)C(=O)N[C@@H](CCCCN)C(=O)N[C@@H](CCN)C(=O)N[C@@H](CCN)C(=O)N[C@H](C(=O)N[C@@H](Cc2ccc(O)cc2)C(=O)O)CSSC1(C)C` [Example 71, Gua-Val-Hyp-Ile-Pen-Tyr-Ser-Asn-Arg-Dab-Thr-^DDab(iPr)-Lys-Dab-Dab-Cys-Tyr] ({Val(Nα-amidino)}-[Hyp]I[Pen]YSNR[Dab]T[dDab(iPr)]K[Dab][Dab]CY-OH; disulfide 3-14): in data set [1], the “Hemolysis at 0.2 g/L” value is less than 1%. Also, in data set [2], the “Escherichia coli ATCC 25922 MIC” value was 0.0625 mg/L. In data set [3], the “Escherichia coli MCR-1 Af45 MIC” value is given as 0.0625 mg/L. In data set [4], the “Klebsiella pneumoniae SSI3010 MIC” value turned out to be 0.125 mg/L.
Turning to `CC[C@H](C)[C@H](NC(=O)[C@@H]1C[C@@H](O)CN1C(=O)[C@@H](NC(=N)N)C(C)C)C(=O)N[C@@H]1C(=O)N[C@@H](Cc2ccc(O)cc2)C(=O)N[C@@H](CCN)C(=O)N[C@@H](CC(N)=O)C(=O)N[C@@H](CCCNC(=N)N)C(=O)N[C@@H](CCN)C(=O)N[C@@H]([C@@H](C)O)C(=O)N[C@H](CCN)C(=O)N[C@@H](CCCCN)C(=O)N[C@@H]([C@@H](C)O)C(=O)N[C@@H](Cc2ccc(O)cc2)C(=O)N[C@H](C(=O)N[C@@H](Cc2ccc(O)cc2)C(=O)O)CSSC1(C)C` [Example 72, Gua-Val-Hyp-Ile-Pen-Tyr-Dab-Asn-Arg-Dab-Thr-^DDab-Lys-Thr-Tyr-Cys-Tyr] ({Val(Nα-amidino)}-[Hyp]I[Pen]Y[Dab]NR[Dab]T[dDab]KTYCY-OH; disulfide 3-14), the “Hemolysis at 0.2 g/L” value in data set [1] is less than 1%. Also, in data set [2], the “Escherichia coli ATCC 25922 MIC” value is recorded as 0.5 mg/L. The “Escherichia coli MCR-1 Af45 MIC” value in data set [3] is 0.5 mg/L. Besides, the “Klebsiella pneumoniae SSI3010 MIC” value in data set [4] is on record as 0.5 mg/L.
Take `CC[C@H](C)[C@@H]1NC(=O)[C@H]([C@@H](C)O)NC(=O)[C@H](CCCCN)NC(=O)[C@@H](CCN)NC(=O)[C@H]([C@@H](C)O)NC(=O)[C@H](CCN)NC(=O)[C@H](CCCNC(=N)N)NC(=O)[C@H](CC(N)=O)NC(=O)[C@H](CCN)NC(=O)[C@H](Cc2ccc(O)cc2)NC(=O)[C@@H](NC(=O)[C@@H](NC(=O)[C@@H]2C[C@@H](O)CN2C(=O)[C@@H](NC(=N)N)C(C)C)[C@@H](C)CC)C(C)(C)SSC[C@@H](C(=O)N[C@@H](Cc2ccc(O)cc2)C(=O)O)NC1=O` [Example 73, Gua-Val-Hyp-Ile-Pen-Tyr-Dab-Asn-Arg-Dab-Thr-^DDab-Lys-Thr-Ile-Cys-Tyr] ({Val(Nα-amidino)}-[Hyp]I[Pen]Y[Dab]NR[Dab]T[dDab]KTICY-OH; disulfide 3-14): in data set [1], the “Hemolysis at 0.2 g/L” value is less than 1%. The “Escherichia coli ATCC 25922 MIC” value in data set [2] amounted to 0.5 mg/L. In addition, the “Escherichia coli MCR-1 Af45 MIC” value in data set [3] came to 0.5 mg/L. Also, in data set [4], the “Klebsiella pneumoniae SSI3010 MIC” value was found to be 0.5 mg/L.
